# Measured values taken from patent publication US20240083879A1, “OXALAMIDE COMPOUNDS AND COMPOSITIONS FOR TREATING CONDITIONS ASSOCIATED WITH STING ACTIVITY” (IFM Due, Inc., priority 2021, published 2024).
# Molecular target: hSTING (Homo sapiens (Human), UniProt Q86WV6, G230A/R293Q/R71H)
# Assay: STING reporter assay (luciferase) in THP1-Dual KO-IFNAR2 cells stimulated with 2'3'cGAMP
# Type: cell-based
# Details: 15 μM 2'3'cGAMP, 24 h
# Method: STING pathway activation by the compounds described herein was measured using THP1-Dual™ cells (KO-IFNAR2).
# THP1-Dual™ KO-IFNAR2 Cells (obtained from invivogen) were maintained in RPMI, 10% FCS, 5 ml P/S, 2 mM L-glut, 10 mM Hepes, and 1 mM sodium pyruvate. Compounds were spotted in empty 384 well tissue culture plates (Greiner 781182) by Echo for a final concentration of 0.0017-100 μM. Cells were plated into the TC plates at 40 μL per well, 2×10E6 cells/mL. For activation with STING ligand, 2′3′cGAMP (MW 718.38, obtained from Invivogen), was prepared in Optimem media.
# The following solutions were prepared for each 1×384 plate: • Solution A: 2 mL Optimem with one of the following stimuli: • 60 μL of 10 mM 2′3′cGAMP→150 μM stock • Solution B: 2 mL Optimem with 60 μL Lipofectamine 2000→Incubate 5 min at RT
# 2 mL of solution A and 2 ml Solution B was mixed and incubated for 20 min at room temperature (RT). 20 μL of transfection solution (A+B) was added on top of the plated cells, with a final 2′3′cGAMP concentration of 15 μM. The plates were then centrifuged immediately at 340 g for 1 minute, after which they were incubated at 37° C., 5% CO2, >98% humidity for 24 h. Luciferase reporter activity was then measured. EC50 values were calculated by using standard methods known in the art.
# Luciferase reporter assay: 10 μL of supernatant from the assay was transferred to white 384-plate with flat bottom and squared wells. One pouch of QUANTI-Luc™ Plus was dissolved in 25 mL of water. 100 μL of QLC Stabilizer per 25 mL of QUANTI-Luc™ Plus solution was added. 50 μL of QUANTI-Luc™ Plus/QLC solution per well was then added. Luminescence was measured on a Platereader (e.g., Spectramax I3X (Molecular Devices GF3637001)).
# Luciferase reporter activity was then measured. EC50 values were calculated by using standard methods known in the art.
# Sequence of hSTING (Q86WV6 whole entry R71H/G230A/R293Q): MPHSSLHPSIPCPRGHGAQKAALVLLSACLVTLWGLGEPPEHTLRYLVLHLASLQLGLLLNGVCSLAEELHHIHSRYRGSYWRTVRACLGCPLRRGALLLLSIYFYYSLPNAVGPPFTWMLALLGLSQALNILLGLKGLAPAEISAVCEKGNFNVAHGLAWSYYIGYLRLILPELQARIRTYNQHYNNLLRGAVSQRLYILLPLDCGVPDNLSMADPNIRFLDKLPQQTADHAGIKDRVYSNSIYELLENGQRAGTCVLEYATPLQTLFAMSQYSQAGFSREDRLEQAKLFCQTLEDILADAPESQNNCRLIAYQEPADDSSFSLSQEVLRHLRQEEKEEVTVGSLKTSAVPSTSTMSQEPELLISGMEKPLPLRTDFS
row,SMILES,EC50
1,"O=C(Nc1c[nH]c2ccc(-c3cnn(-c4ccc(C(F)(F)F)cc4)c3)cc12)C(=O)NC1COC1 [Compound 102, N^1-(oxetan-3-yl)-N^2-(5-(1-(4-(trifluoromethyl)phenyl)-1H-pyrazol-4-yl)-1H-indol-3-yl)oxalamide]",200 to 1000 nM
2,"CCc1ccc(-n2cc(-c3ccc4[nH]cc(NC(=O)C(=O)NCCC(F)(F)F)c4c3)cn2)cc1 [Compound 103, N′-{5-[1-(4-ethylphenyl)-1H-pyrazol-4-yl]-1H-indol-3-yl}-N-(3,3,3-trifluoropropyl)ethanediamide]",200 to 1000 nM
3,"CCc1ccc(-n2cc(-c3ccc4[nH]cc(NC(=O)C(=O)N5CCCC5)c4c3)cn2)cc1 [Compound 115, N-{5-[1-(4-ethylphenyl)-1H-pyrazol-4-yl]-1H-indol-3-yl}-2-oxo-2-(pyrrolidin-1-yl)acetamide]",200 to 1000 nM
4,"CNC(=O)C(=O)Nc1c[nH]c2ccc(-c3cnn(-c4cccc(Cl)c4)c3)cc12 [Compound 119, N^1-(5-(1-(3-chlorophenyl)-1H-pyrazol-4-yl)-1H-indol-3-yl)-N^2-methyloxalamide]",1000 to 5000 nM
5,"CCc1ccc(-n2cc(-c3ccc4[nH]cc(NC(=O)C(=O)NC5CCOC5)c4c3)cn2)cc1 (stereo not drawn) [Compound 108, N-{5-[1-(4-ethylphenyl)-1H-pyrazol-4-yl]-1H-indol-3-yl}-N′-(oxolan-3-yl)ethanediamide]",200 to 1000 nM
6,"CNC(=O)C(=O)Nc1c[nH]c2ccc(-c3cnn(-c4ccc(C(F)(F)F)cc4)c3)cc12 [Compound 118, N^1-methyl-N^2-(5-(1-(4-(trifluoromethyl)phenyl)-1H-pyrazol-4-yl)-1H-indol-3-yl)oxalamide]",200 to 1000 nM
7,"CCc1ccc(-n2cc(-c3ccc4[nH]cc(NC(=O)C(=O)NCCOC)c4c3)cn2)cc1 [Compound 120, N′-{5-[1-(4-ethylphenyl)-1H-pyrazol-4-yl]-1H-indol-3-yl}-N-(2-methoxyethyl)ethanediamide]",200 to 1000 nM
8,"CCc1ccc(-n2cc(-c3ccc4[nH]cc(NC(=O)C(=O)NCC5CC5)c4c3)cn2)cc1 [Compound 105, N-(cyclopropylmethyl)-N′-{5-[1-(4-ethylphenyl)-1H-pyrazol-4-yl]-1H-indol-3-yl}ethanediamide]",200 to 1000 nM
9,"CCc1ccc(-n2cc(-c3ccc4[nH]cc(NC(=O)C(=O)N5CCC5)c4c3)cn2)cc1 [Compound 107, 2-(azetidin-1-yl)-N-{5-[1-(4-ethylphenyl)-1H-pyrazol-4-yl]-1H-indol-3-yl}-2-oxoacetamide]",200 to 1000 nM
10,"CCc1ccc(-n2cc(-c3ccc4[nH]cc(NC(=O)C(=O)N[C@H]5C[C@H](OC)C5)c4c3)cn2)cc1 [Compound 109, N′-{5-[1-(4-ethylphenyl)-1H-pyrazol-4-yl]-1H-indol-3-yl}-N-[(1r,3r)-3-methoxycyclobutyl]ethanediamide]",200 to 1000 nM
11,"CNC(=O)C(=O)Nc1c[nH]c2ccc(-c3cccc(C4CC4)c3)cc12 [Compound 117, N^1-(5-(3-cyclopropylphenyl)-1H-indol-3-yl)-N^2-methyloxalamide]",5000 to 100000 nM
12,"CO[C@H]1C[C@H](NC(=O)C(=O)Nc2c[nH]c3ccc(-c4cnn(-c5ccc(C(F)(F)F)cc5)c4)cc23)C1 [Compound 101, N-[trans-3-methoxycyclobutyl]-N′-(5-[1-[4-(trifluoromethyl)phenyl]pyrazol-4-yl]-1H-indol-3-yl)ethanediamide]",200 to 1000 nM
13,"CNC(=O)C(=O)Nc1c[nH]c2ccc(-c3cnn(C4CCCC4)c3)cc12 [Compound 122, N^1-(5-(1-cyclopentyl-1H-pyrazol-4-yl)-1H-indol-3-yl)-N^2-methyloxalamide]",5000 to 100000 nM
14,"CCc1ccc(-n2cc(-c3ccc4[nH]cc(NC(=O)C(=O)NCC(F)F)c4c3)cn2)cc1 [Compound 116, N-(2,2-difluoroethyl)-N′-{5-[1-(4-ethylphenyl)-1H-pyrazol-4-yl]-1H-indol-3-yl}ethanediamide]",200 to 1000 nM
15,"CCc1ccc(-n2cc(-c3ccc4[nH]cc(NC(=O)C(=O)NC5CCCC5)c4c3)cn2)cc1 [Compound 104, N′-cyclopentyl-N-{5-[1-(4-ethylphenyl)-1H-pyrazol-4-yl]-1H-indol-3-yl}ethanediamide]",200 to 1000 nM
16,"CCc1ccc(-n2cc(-c3ccc4[nH]cc(NC(=O)C(=O)NCC5CCCC5)c4c3)cn2)cc1 [Compound 106, N′-(cyclopentylmethyl)-N-{5-[1-(4-ethylphenyl)-1H-pyrazol-4-yl]-1H-indol-3-yl}ethanediamide]",200 to 1000 nM
17,"CCc1ccc(-n2cc(-c3ccc4[nH]cc(NC(=O)C(=O)N(C)C)c4c3)cn2)cc1 [Compound 112, N′-{5-[1-(4-ethylphenyl)-1H-pyrazol-4-yl]-1H-indol-3-yl}-N,N-dimethylethanediamide]",200 to 1000 nM
18,"CNC(=O)C(=O)Nc1c[nH]c2ccc(-c3cnn(-c4ccccc4Cl)c3)cc12 [Compound 121, N^1-(5-(1-(2-chlorophenyl)-1H-pyrazol-4-yl)-1H-indol-3-yl)-N^2-methyloxalamide]",1000 to 5000 nM
19,"CCc1ccc(-n2cc(-c3ccc4[nH]cc(NC(=O)C(=O)N5CCN(C(C)=O)CC5)c4c3)cn2)cc1 [Compound 111, 2-(4-acetylpiperazin-1-yl)-N-{5-[1-(4-ethylphenyl)-1H-pyrazol-4-yl]-1H-indol-3-yl}-2-oxoacetamide]",200 to 1000 nM
20,"CCc1ccc(-n2cc(-c3ccc4[nH]cc(NC(=O)C(=O)NC(C)C)c4c3)cn2)cc1 [Compound 110, N′-{5-[1-(4-ethylphenyl)-1H-pyrazol-4-yl]-1H-indol-3-yl}-N-(propan-2-yl)ethanediamide]",200 to 1000 nM
21,"CCc1ccc(-n2cc(-c3ccc4[nH]cc(NC(=O)C(=O)NC5CCC5)c4c3)cn2)cc1 [Compound 113, N-cyclobutyl-N′-{5-[1-(4-ethylphenyl)-1H-pyrazol-4-yl]-1H-indol-3-yl}ethanediamide]",200 to 1000 nM
22,"CCc1ccc(-n2cc(-c3ccc4[nH]cc(NC(=O)C(N)=O)c4c3)cn2)cc1 [Compound 124, N^1-(5-(1-(4-ethylphenyl)-1H-pyrazol-4-yl)-1H-indol-3-yl)oxalamide]",200 to 1000 nM
23,"CCc1ccc(-n2cc(-c3ccc4[nH]cc(NC(=O)C(=O)NCC(F)(F)F)c4c3)cn2)cc1 [Compound 114, N1-(5-(1-(4-ethylphenyl)-1H-pyrazol-4-yl)-1H-indol-3-yl)-N^2-(2,2,2-trifluoroethyl)oxalamide]",200 to 1000 nM
24,"CCc1ccc(-n2cc(-c3ccc4[nH]cc(NC(=O)C(=O)NC)c4c3)cn2)cc1 [Compound 123, N′-[5-[1-(4-ethylphenyl)pyrazol-4-yl]-1H-indol-3-yl]-N-methylethanediamide]",200 to 1000 nM
